The values that follow come from patent US20250230141A1, “Substituted Fused Bicyclic Compounds and Related Methods of Treatment” (Alkermes, Inc., priority 2022, published 2025).

The experiment deals with T1, human orexin-2 receptor (OX2R) (Homo sapiens, UniProt O43614).
T1 construct: expressed in transfected cells
T1 sequence (O43614 1-444): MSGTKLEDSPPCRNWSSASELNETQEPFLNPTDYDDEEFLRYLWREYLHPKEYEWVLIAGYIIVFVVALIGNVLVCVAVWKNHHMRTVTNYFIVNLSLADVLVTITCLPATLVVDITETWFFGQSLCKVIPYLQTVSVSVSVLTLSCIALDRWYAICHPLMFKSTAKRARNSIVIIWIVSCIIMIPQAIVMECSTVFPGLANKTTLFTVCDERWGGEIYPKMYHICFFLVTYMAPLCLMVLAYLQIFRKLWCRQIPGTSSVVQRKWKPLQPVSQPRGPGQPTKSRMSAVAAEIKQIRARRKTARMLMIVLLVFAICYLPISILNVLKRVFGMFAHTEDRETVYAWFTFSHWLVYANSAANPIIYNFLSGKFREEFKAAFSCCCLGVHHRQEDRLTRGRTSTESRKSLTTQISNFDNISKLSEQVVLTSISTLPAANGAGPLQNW
Briefly: Human OX2R IP1 assay. It counts as cell-based. Particulars: T-Rex CHO cells stably overexpressing human OX2R; IP1 accumulation, 1 hr at 37 degrees C; mean EC50. On the procedure:
T-Rex CHO cells stably overexpressing the human orexin-2 receptor (OX2R) were induced overnight with 1 μg/mL of doxycycline in a T225 flask. 24 hours post induction, cells were lifted with accutase and plated into a 384-well proxy plate at 30,000 cells/well. Cells were then treated with different test compounds in 1× stimulation buffer containing 10 mM Hepes, 1 mM CaCl2, 0.5 mM MgCl2, 4.2 mM KCl, 146 mM NaCl, 5.5 mM glucose, and 50 mM LiCl, pH 7.4, for 1 hr at 37 degrees C. Following incubation, the reaction was terminated by the addition of detection mix, which is composed of IP1-d2 and anti-IP1-cryptate diluted in lysis buffer as well as 1× stimulation buffer. The plates were allowed to incubate for 1 hour at room temperature and were then read in the EnVision® multimode plate reader, measuring inositol phosphate levels.
Cisbio IP1 is a cell-based functional assay quantifying the accumulation of inositol monophosphate (IP), a metabolite released as a result of orexin 2 receptor activation through the phospholipase C-Gq signaling pathway. This is a competitive immunoassay in which the IP1 produced by the cells upon receptor activation competes with the IP1 analog coupled to the d2 fluorophore (acceptor) for binding to an anti-IP1 monoclonal antibody labeled with Eu cryptate (donor). The measured HTRF-FRET based signal is inversely proportional to the IP1 concentration produced.
The EC50 values reported in Table 2 were obtained according to the human OX2R IP1 assay described above. Data are the mean EC50 values±S.E.M.

The EC50 is the concentration giving half of the maximal effect. A low value points to an effect from little substance. In turn, `CC(=O)N1CC[C@H](NS(C)(=O)=O)[C@H](CO[C@H]2CC[C@@H](c3ccc4c(cnn4C)c3)CC2)C1` [Compound 20] displayed an EC50 greater than 10 nM.
For the compound `Cn1ncc2cc([C@H]3CC[C@@H](OC[C@@H]4CN(C(=O)CN5CCOCC5)CC[C@@H]4NS(C)(=O)=O)CC3)ccc21` [Compound 45], the EC50 was greater than 10 nM.
In turn, `Cn1cnc2cc([C@H]3CC[C@@H](OC[C@@H]4CN(c5ccccn5)CC[C@@H]4NS(C)(=O)=O)CC3)ccc21` [Compound 8] returned an EC50 of 1 to 10 nM.
`Cn1ncc2cc([C@H]3CC[C@@H](OC[C@@H]4CN(C(=O)C5CCOC5)CC[C@@H]4NS(C)(=O)=O)CC3)ccc21` (some centres unmarked) [Compound 59] showed a half-maximal effective concentration (EC50) of 1 to 10 nM.
`Cn1ncc2cc([C@H]3CC[C@@H](OC[C@@H]4CN(C(=O)C(C)(C)C)CC[C@@H]4NS(C)(=O)=O)CC3)ccc21` [Compound 22] gave an EC50 of 1 to 10 nM.
`CNS(=O)(=O)N[C@H]1CCN(c2cccnn2)C[C@H]1CO[C@H]1CC[C@@H](c2ccc3c(cnn3C)c2)CC1` [Compound 29] had an EC50 of less than 1 nM.
For `CN(C)S(=O)(=O)N[C@H]1CCN(c2cccnn2)C[C@H]1CO[C@H]1CC[C@@H](c2ccc3c(cnn3C)c2)CC1` [Compound 30], the EC50 is less than 1 nM.
For the compound `Cn1cnc2ccc([C@H]3CC[C@H](OC[C@@H]4CN(c5ccccn5)CC[C@@H]4NS(C)(=O)=O)CC3)cc21` [Compound 64], the EC50 lay within 1 to 10 nM.
`CS(=O)(=O)N[C@H]1CCN(c2ccccn2)C[C@H]1CO[C@H]1CC[C@@H](c2ccc3[nH]ncc3c2)CC1` [Compound 1] gave an EC50 of less than 1 nM.
For `Cn1ncc2cc([C@H]3CC[C@@H](OC[C@@H]4CN(c5ccccn5)CC[C@@H]4NS(C)(=O)=O)CC3)ccc21` [Compound 3], the EC50 was less than 1 nM.
The same measure for `Cn1ncc2cc([C@H]3CC[C@@H](OC[C@@H]4CN(c5ccccn5)CC[C@@H]4NS(C)(=O)=O)CC3)ncc21` [Compound 7]: greater than 10 nM; for `CS(=O)(=O)N[C@H]1CCN(C(=O)C2(F)CCC2)C[C@H]1CO[C@H]1CC[C@@H](c2ccc3[nH]ncc3c2)CC1` [Compound 4]: 1 to 10 nM; for `Cn1ncc2cc([C@H]3CC[C@@H](OC[C@@H]4CN(C(=O)[C@@H]5CCOC5)CC[C@@H]4NS(C)(=O)=O)CC3)ccc21` [Compound 17]: 1 to 10 nM.
The compound `Cn1ncc2cc([C@H]3CC[C@@H](OC[C@@H]4CN(C(=O)CO)CC[C@@H]4NS(C)(=O)=O)CC3)ccc21` [Compound 48] registered an EC50 greater than 10 nM.
`Cn1ncc2cc([C@H]3CC[C@@H](OC[C@@H]4CN(c5cccnn5)CC[C@@H]4NS(=O)(=O)C(F)(F)F)CC3)cc(F)c21` [Compound 26]: the EC50 was in the range of 1 to 10 nM.
In turn, `Cn1cnc2cc([C@H]3CC[C@@H](OC[C@@H]4CN(C(=O)C5(F)CCC5)CC[C@@H]4NS(C)(=O)=O)CC3)ccc21` [Compound 16] came in with an EC50 of less than 1 nM.
Consider `Cn1ncc2cc([C@H]3CC[C@@H](OC[C@@H]4CN(C(=O)C5CCOC5)CC[C@@H]4NS(C)(=O)=O)CC3)ccc21` (some centres unmarked) [Compound 60], for which the EC50 was greater than 10 nM.
In the case of `COC(=O)N1CC[C@H](NS(C)(=O)=O)[C@H](CO[C@H]2CC[C@@H](c3ccc4[nH]ncc4c3)CC2)C1` [Compound 5] it was 1 to 10 nM; in that of `CN(C)C(=O)N[C@H]1CCN(c2cccnn2)C[C@H]1CO[C@H]1CC[C@@H](c2ccc3c(cnn3C)c2)CC1` [Compound 58], greater than 10 nM; in that of `Cn1ncc2ccc(C3CCC(OC[C@@H]4CN(c5ccccn5)CC[C@@H]4NS(C)(=O)=O)CC3)cc21` (some centres unmarked) [Compound 66], greater than 10 nM.
Regarding `Cn1cnc2ccc([C@H]3CC[C@@H](OC[C@@H]4CN(C(=O)C5(F)CCC5)CC[C@@H]4NS(C)(=O)=O)CC3)cc21` [Compound 19], the EC50 was in the range of 1 to 10 nM.
As for `Cn1cnc2ccc(C3CCC(OC[C@@H]4CN(c5ccccn5)CC[C@@H]4NS(C)(=O)=O)CC3)cc21` (some centres unmarked) [Compound 63], the EC50 is greater than 10 nM.
In turn, `Cn1ncc2cc([C@H]3CC[C@@H](OC[C@@H]4CN(C(=O)C5(F)CCC5)CC[C@@H]4NS(=O)(=O)C(F)(F)F)CC3)ccc21` [Compound 14] had an EC50 of 1 to 10 nM.
`Cn1ncc2cc([C@H]3CC[C@@H](OC[C@@H]4CN(C(=O)C5CCOC5)CC[C@@H]4NS(=O)(=O)C(F)(F)F)CC3)ccc21` (some centres unmarked) [Compound 33] came in with an EC50 of 1 to 10 nM.
The same measure for `Cn1ncc2cc([C@H]3CC[C@@H](OC[C@@H]4CN(c5cccnn5)CC[C@@H]4NS(=O)(=O)C(F)(F)F)CC3)ccc21` [Compound 13]: less than 1 nM.
`Cn1ncc2cc([C@H]3CC[C@@H](OC[C@@H]4CN(C(=O)CN5CCCCC5)CC[C@@H]4NS(C)(=O)=O)CC3)ccc21` [Compound 46] displayed an EC50 greater than 10 nM.
The same measure for `Cn1ncc2cc([C@H]3CC[C@@H](OC[C@@H]4CN(C(=O)C5COC5)CC[C@@H]4NS(C)(=O)=O)CC3)ccc21` [Compound 47]: greater than 10 nM.
`Cn1ccnc1CC(=O)N1CC[C@H](NS(C)(=O)=O)[C@H](CO[C@H]2CC[C@@H](c3ccc4c(cnn4C)c3)CC2)C1` [Compound 49] came in with an EC50 greater than 10 nM.
As for `Cn1ncc2cc([C@H]3CC[C@@H](OC[C@@H]4CN(c5ccccn5)CC[C@@H]4NS(=O)(=O)C(F)(F)F)CC3)ccc21` [Compound 10], the EC50 was less than 1 nM.
The same measure for `Cn1ncc2cc([C@H]3CC[C@@H](OC[C@@H]4CN(C(=O)C(C)(C)O)CC[C@@H]4NS(C)(=O)=O)CC3)ccc21` [Compound 21]: 1 to 10 nM.
In the case of `Cn1ncc2cc([C@H]3CC[C@@H](OC[C@@H]4CN(C(=O)C5(F)CCC5)CC[C@@H]4NS(C)(=O)=O)CC3)ccc21` [Compound 11], the EC50 is less than 1 nM.
`Cn1ncc2cc([C@H]3CC[C@@H](OC[C@@H]4CN(C(=O)[C@@]5(C)CCOC5)CC[C@@H]4NS(C)(=O)=O)CC3)ccc21` [Compound 28] gave an EC50 of 1 to 10 nM.
Turning to `Cn1ncc2cc([C@H]3CC[C@@H](OC[C@@H]4CN(C(=O)Cc5ccncn5)CC[C@@H]4NS(C)(=O)=O)CC3)ccc21` [Compound 52], the EC50 is greater than 10 nM.
`Cn1cnc2ccc([C@H]3CC[C@@H](OC[C@@H]4CN(c5ccccn5)CC[C@@H]4NS(C)(=O)=O)CC3)cc21` [Compound 9] gave an EC50 of 1 to 10 nM.
`Cn1ncc2cc([C@H]3CC[C@@H](OC[C@@H]4CN(C(=O)Cc5ncccn5)CC[C@@H]4NS(C)(=O)=O)CC3)ccc21` [Compound 50]: the EC50 was greater than 10 nM.
The compound `COC(=O)N1CC[C@H](NS(C)(=O)=O)[C@H](CO[C@H]2CC[C@@H](c3ccc4c(cnn4C)c3)CC2)C1` [Compound 12] gave an EC50 of 1 to 10 nM.
The compound `Cn1ncc2ccc([C@H]3CC[C@H](OC[C@@H]4CN(c5ccccn5)CC[C@@H]4NS(C)(=O)=O)CC3)cc21` [Compound 65] showed an EC50 greater than 10 nM.
Turning to `Cn1ncc2cc([C@H]3CC[C@@H](OC[C@@H]4CN(C(=O)C5CC5)CC[C@@H]4NS(C)(=O)=O)CC3)ccc21` [Compound 18], the EC50 was in the range of 1 to 10 nM.
Consider `Cn1ncc2cc([C@H]3CC[C@@H](OC[C@@H]4CN(c5cccnn5)CC[C@@H]4NS(C)(=O)=O)CC3)ccc21` [Compound 15], for which the EC50 was 1 to 10 nM.
As to `Cn1ncc2cc([C@H]3CC[C@@H](OC[C@@H]4CN(C(=O)N5CCC5)CC[C@@H]4NS(C)(=O)=O)CC3)ccc21` [Compound 23], the EC50 was 1 to 10 nM.
For `Cn1ncc2cc([C@H]3CC[C@@H](OC[C@@H]4CN(C(=O)Cc5cnccn5)CC[C@@H]4NS(C)(=O)=O)CC3)ccc21` [Compound 51], the EC50 is greater than 10 nM.
